Experimental findings from patent US8163693B2, “Urea-containing peptides as inhibitors of viral replication” (Achillion Pharmaceuticals, Inc., priority 2007, dated 2012) are described below.

The first assay has as its system Hepatitis C replicon in Huh-7 cells. Kind of assay: HCV replicon assay (inhibition of HCV replicon replication, NPT ELISA readout). It counts as cell-based. The settings on record: Hepatitis C virus, 72 h; Huh-7 HCV replicon-containing cells, three days incubation; read-out: Activity (EC50 class in an HCV replicon assay). As to the method:
Compounds claimed herein are tested for the ability to inhibit viral replication of the Hepatitis C replicon in cultured cells in which the HCV replicon construct has been incorporated. The HCV replicon system was described by Bartenschlager, et. al (Science, 285, pp. 110-113 (1999)). The replicon system is predictive of in vivo anti-HCV activity; compounds that are active in humans uniformly evidence activity in the replicon assay.
In this assay HCV replicon containing cells are treated with different concentrations of the test compound to ascertain the ability of the test compound to suppress replication of the HCV replicon. As a positive control, HCV replicon-containing cells are treated with different concentrations of interferon alpha, a known inhibitor of HCV replication. The replicon assay system includes Neomycin Phosphotransferase (NPT) as a component of the replicon itself in order to detect the transcription of replicon gene products in the host cell. Cells in which the HCV replicon is actively replicating have high levels of NPT; the level of NPT is proportional to HCV replication. […] The NPT level of each sample is measured using a captured ELISA.
A protocol for testing compounds for the ability to inhibit viral replication of the Hepatitis C replicon cultured cells in which the replicon construct has been incorporated, follows.
The HCV replicon contains, 5′-3′, the HCV-IRES, the neomycin phosphotransferase (neo) gene, the IRES of encephalomyocarditis virus, which directs translation of HCV sequences NS3 to NS5B, and the 3′-NTR. The sequence of the HCV replicon has been deposited in GenBank (Accession no. AJ242652).
The replicon is transfected into Huh-7 cells using standard methods such as electroporation.
The equipment and materials include, but are not limited to, Huh-7 HCV replicon-containing cells, maintenance media (DMEM (Dulbecco's modified Eagle media) supplemented with 10% FBS, L-glutamine, non-essential amino acids, penicillin (100 units/ml), streptomycin (100 micrograms/ml), and 500 micrograms/ml of Geneticin (G418), screening media (DMEM supplemented with 10% FBS, L-glutamine, non-essential amino acids, penicillin (100 units/ml) and streptomycin (100 micrograms/ml)), 96 well tissue culture plates (flat bottom), 96 well plates (U bottom for drug dilution), Interferon alpha for positive control, fixation reagent (such as methanol: acetone), primary antibody (rabbit anti-NPTII), secondary antibody: Eu-N1 1, and enhancement solution.
The cells are then seeded onto 96-well plates at a density of 6000-7500 cells/100 microliters/ well (6-7.5×10^5 cells/10 ml/plate). The plates are then incubated at 37° C. in a 5% CO2 incubator.
HCV replicon-containing cells are rinsed with once PBS once; 2 mls of trypsin are then added. Cells are incubated at 37° C. in a 5% CO2 incubator for 3-5 minutes. 10 mls of complete medium is added to stop the reaction. Cells are blown gently, put into a 15 ml tube, and spun at 1200 rpm for four minutes. The trypsin/medium solution is removed and 5 mls of medium (500 ml DMEM (high glucose)) from BRL catalog #12430-054; 50 mls 10% FBS, 5% Geneticin G418 (50 mg/ml, BRL catalog #10131-035), 5 ml MEM non-essential amino acids (100× BRL #11140-050) and 5 ml pen-strep (BRL #15140-148) is added. The cells and media are mixed carefully
Cells are plated with screening medium (500 ml DMEM (BRL #21063-029), 50 ml FBS (BRL #10082-147) and 5 ml MEM non-essential amino acid (BRL #11140-050) at 6000-7500 fcells/100 μl/well of 96 well plate (6-7.5×10^5 cells/10 ml/plate). Plates are placed into 37° C. 5% CO2 incubator overnight.
The following morning, drugs (test compounds or interferon alpha) are diluted in 96 well U bottom plates with media or DMSO/media, depending on the final concentration chosen for screening. Generally for 6 concentrations of each test compounds ranging from 10 micromolar to 0.03 micromolar are applied. […]
For orientation: In antiviral work, replicon cells carry a viral genome segment that copies itself.
For the molecule `CCCC(NC(=O)N1C[C@@H](Oc2cc(-c3ccccc3)nc3cc(OC)ccc23)C[C@H]1C(=O)N[C@H](C(=O)N[C@H](C(=O)OC)C1CCCCC1)C(C)(C)C)C(=O)C(=O)NC1CC1` (some centres unmarked) [Compound 41], the concentration for a half-maximal effect (EC50) – broadly, the midpoint of the concentration-response curve – is below 10 µM.
`CCCC(NC(=O)N1C[C@@H](OC(=O)N2CCCCC2)C[C@H]1C(=O)N[C@H](C(=O)OC(C)(C)C)C(C)(C)C)C(=O)C(=O)NC1CC1` (some centres unmarked) [Compound 44]: the EC50 was below 10 µM.
Still for that read-out and setting: the value for `C=CC1CC1(NC(=O)N1C[C@@H](Oc2cc(-c3ccccc3)nc3cc(OC)ccc23)C[C@H]1C(=O)N[C@H](C(=O)N[C@H](C(=O)NC)C1CCCCC1)C(C)(C)C)C(=O)NS(=O)(=O)C1CC1` (some centres unmarked) [Compound 48] was below 10 µM; that for `C=CC1CC1(NC(=O)N1C[C@@H](Oc2cc(-c3ccccc3)nc3cc(OC)ccc23)C[C@H]1C(=O)NC(C(=O)N[C@H](C(=O)NC)C1CCCCC1)C(C)(C)C)C(=O)O` (some centres unmarked) [Compound 42] was above 100 µM.
As to `CCCC(NC(=O)N1C[C@@H](OC(=O)N2CCc3ccccc3C2)C[C@H]1C(=O)N[C@H](C(=O)OC(C)(C)C)C(C)(C)C)C(=O)C(=O)NC1CC1` (some centres unmarked) [Compound 43], the concentration giving a half-maximal response (EC50) fell in the range of 10 to 100 µM.
Consider `C=CC1CC1(NC(=O)N1C[C@@H](OC(=O)N2CCCCC2)C[C@H]1C(=O)N[C@H](C(=O)OC(C)(C)C)C(C)(C)C)C(=O)O` (some centres unmarked) [Compound 46], for which the EC50 lay in the range of 10 to 100 µM.
Take `C=CC1CC1(NC(=O)N1C[C@@H](OC(=O)N2CCCCC2)C[C@H]1C(=O)N[C@H](C(=O)OC(C)(C)C)C(C)(C)C)C(=O)NS(=O)(=O)C1CC1` (some centres unmarked) [Compound 47]: the EC50 is below 10 µM.
For `C=CC1CC1(NC(=O)N1C[C@@H](OC(=O)N2CCCCC2)C[C@H]1C(=O)N[C@H](C(=O)OC(C)(C)C)C(C)(C)C)C(=O)OCC` (some centres unmarked) [Compound 45], the concentration for a half-maximal effect (EC50) is below 10 µM.

The same assay, now with this note: Hepatitis C virus, 72 h; Huh-7 HCV replicon-containing cells, three days incubation; read-out: EC50 in HCV replicon assay.
On to `CNC(=O)[C@@H](NC(=O)[C@@H]1CCCCC/C=C\CC(C(=O)C(=O)NC2CC2)NC(=O)N2C[C@@H](OC(=O)N3CCc4ccccc4C3)C[C@@H]2C(=O)N1)C1CCCCC1` (some centres unmarked) [Compound 39], for which the half-maximal effective concentration (EC50) was at most 10 µM.
Turning to `CCCC(NC(=O)N1C[C@@H](OC(=O)N2CCc3ccccc3C2)C[C@H]1C(=O)N[C@H](C(=O)N[C@H](C(=O)OC)C1CCCCC1)C(C)(C)C)C(=O)C(=O)NC1CC1` (stereo partly drawn) [Compound 11, (3S,5S)-5-((S)-1-((S)-1-Cyclohexyl-2-Methoxy-2-Oxoethylamino)-3,3-Dimethyl-1-Oxobutan-2-Ylcarbamoyl)-1-(1-(Cyclopropylamino)-1,2-Dioxohexan-3-Ylcarbamoyl)Pyrrolidin-3-yl 3,4-Dihydroisoquinoline-2(1H)-Carboxylate], the EC50 is at most 10 µM.
As to `CNC(=O)[C@@H](NC(=O)[C@@H]1CCCCC/C=C\C2CC2(C(=O)O)NC(=O)N2C[C@@H](OC(=O)N3CCc4ccccc4C3)C[C@@H]2C(=O)N1)C1CCCCC1` (some centres unmarked) [Compound 40], the EC50 is at most 10 µM.
As to `C=CC1CC1(NC(=O)N1C[C@@H](OC(=O)N2CCc3ccccc3C2)C[C@@H]1C(=O)N[C@H](C(=O)N[C@H](C(=O)NC)C(CC)CC)C(C)(C)C)C(=O)O` (stereo partly drawn) [Compound 38, 1-((2R,4S)-2-((S)-1-((S)-3-Ethyl-1-(Methylamino)-1-Oxopentan-2-Ylamino)-3,3-Dimethyl-1-Oxobutan-2-Ylcarbamoyl)-4-(1,2,3,4-Tetrahydroisoquinoline-2-Carbonyloxy)Pyrrolidine-1-Carboxamido)-2-Vinylcyclopropanecarboxylic Acid], the EC50 was below 50 µM.
Regarding `C=CC1CC1(NC(=O)N1C[C@@H](OC(=O)N2CCc3ccccc3C2)C[C@H]1C(=O)N[C@H](C(=O)N[C@H](C(=O)NC)C1CCCCC1)C(C)(C)C)C(=O)O` (stereo partly drawn) [Compound 33, 1-((2S,4S)-2-((S)-1-((S)-1-Cyclohexyl-2-(Methylamino)-2-Oxoethylamino)-3,3-Dimethyl-1-Oxobutan-2-Ylcarbamoyl)-4-(1,2,3,4-Tetrahydroisoquinoline-2-Carbonyloxy)Pyrrolidine-1-Carboxamido)-2-Vinylcyclopropanecarboxylic Acid], the EC50 was below 50 µM.
In the case of `CCCC(NC(=O)N1C[C@@H](OC(=O)N2CCc3ccccc3C2)C[C@H]1C(=O)N[C@H](C(=O)N[C@H](C(=O)NC)C1CCCCC1)C(C)(C)C)C(=O)C(=O)NC1CC1` (stereo partly drawn) [Compound 16, (3S,5S)-5-((S)-1-((S)-1-Cyclohexyl-2-(Methylamino)-2-Oxoethylamino)-3,3-Dimethyl-1-Oxobutan-2-Ylcarbamoyl)-1-(1-(Cyclopropylamino)-1,2-Dioxohexan-3-Ylcarbamoyl)Pyrrolidin-3-Yl 3,4Dihydroisoquinoline-2(1H)-Carboxylate], the 50% effective concentration (EC50) was below 50 µM.
